Paper PMC9570995, “Design, Synthesis, and Biological Evaluation of Novel Dihydropyridine and Pyridine Analogs as Potent Human Tissue Nonspecific Alkaline Phosphatase Inhibitors with Anticancer Activity: ROS and DNA Damage-Induced Apoptosis” (Molecules, 2022)
Like-named read-outs stand apart in the source and are kept apart here.

How the values were obtained:
[1] = test system: Breast Cancer (MCF-7) Cells; test: MTT cell viability assay, MCF-7; type: cell-based; conditions: for inhibition at 100 µM / IC50: Homo sapiens; for inhibition at 100 µM: MCF7, 100 µM, 24 h; for IC50: MCF7, unit given, read-out: Breast Cancer (MCF-7) Cells IC50 Values ± SEM
Excerpt: (§1) An MTT assay was used to determine the viability of the cells under examination in the desired medium. The mitochondrial dehydrogenase enzyme of the viable cells has a key role in the conversion of the yellow water-soluble substrate 3-(4,5-dimethylthiazol-2-y1)-2,5 diphenyl tetrazolium bromide (MTT) into a dark blue formazan product that is insoluble in water. The anticancer activity of the novel synthetic derivatives (4a–4k) was investigated through an MTT assay, with small modifications following the already published protocols against cancer cell lines (HeLa and MCF-7), using cisplatin as a reference drug. The cytotoxic effect of the tested compounds at 100 µM concentration was determined and represented as the percent growth inhibition compared with the untreated control cells. The first series comprised dihydropyridines analogous from 4a–4f with various substitution patterns on the phenyl ring. […] It is presumed that the 1-naphthyl containing compound 4c was locked in a configuration that is not favorable for an interaction with amino acid residues.
(§2) The anti-proliferative activity of the synthesized compounds was determined in MCF-7 and HeLa cells by an MTT cell viability assay, as described earlier. Briefly, we seeded 1 × 10^4 cells/well in a sterile 96-well culture microtiter plate and incubated them in a 5% CO2 incubator at 37 °C for 24 h. […] After 24 h, the cells were treated with 0.2 mg/mL of MTT reagent for 4 h. We added 10% acidified SDS (sodium dodecyl sulfate) solubilizing solution in propanol (1:1) to solubilize the formazan crystals. After 30 min at 37 °C, the plate was placed on a gyratory shaker to completely dissolve the formazan crystals. The plate was placed on a microplate reader to measure the optical density at 570 nm. The IC50 values were calculated from three independent experiments as previously reported.

[2] = test system: Cervical Cancer (HeLa) Cells; test: MTT cell viability assay, HeLa; type: cell-based; conditions: for IC50: unit given, read-out: Cervical Cancer (HeLa) Cells IC50 Values ± SEM
Excerpt: as §1, §2

[3] = target: T1, human tissue nonspecific alkaline phosphatase (h-TNAP) (Homo sapiens, UniProt P05186); test: Alkaline phosphatase inhibition assay (p-NPP substrate); type: biochemical; conditions: for inhibition at 1000 µM: compounds tested at 1 mM
T1 sequence (P05186 18-524): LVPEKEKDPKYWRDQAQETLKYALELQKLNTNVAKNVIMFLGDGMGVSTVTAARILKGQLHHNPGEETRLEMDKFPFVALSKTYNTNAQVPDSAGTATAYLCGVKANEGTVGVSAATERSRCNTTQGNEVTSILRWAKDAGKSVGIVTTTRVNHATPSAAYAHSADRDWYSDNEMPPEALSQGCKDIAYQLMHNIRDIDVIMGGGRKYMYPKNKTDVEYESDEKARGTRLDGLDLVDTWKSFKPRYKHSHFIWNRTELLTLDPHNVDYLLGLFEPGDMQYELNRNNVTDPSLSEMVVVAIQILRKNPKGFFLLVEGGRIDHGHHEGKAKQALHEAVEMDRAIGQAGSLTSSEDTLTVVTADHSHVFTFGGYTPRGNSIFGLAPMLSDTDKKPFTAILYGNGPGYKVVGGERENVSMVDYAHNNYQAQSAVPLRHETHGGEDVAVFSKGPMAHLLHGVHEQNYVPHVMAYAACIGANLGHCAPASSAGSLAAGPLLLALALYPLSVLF
Protocol: The newly synthesized compounds were tested against human tissue nonspecific alkaline phosphatase (h-TNAP). The compounds were initially tested against the h-TNAP enzymes at 1 mM concentration. The assay buffer (pH 9.5) constituted of 50% glycerol, followed by tris-hydrochloride (50.0 mM), MgCl2 (5.0 mM), and ZnCl2 (0.1 mM) in the solution. The enzyme substrate p-nitrophenyl phosphate (p-NPP) and all the required test compounds were diluted to the required concentration by a dilution buffer method. In a 96-well plate, the assay was started by adding 70 µL of assay buffer followed by 10.0 µL of the test compound (from 1 mM), 10.0 µL of the enzyme (0.5 µL/mL) and then subsequently incubating at 37 °C for 10 min. The reaction was initiated with the addition of 10.0 µL of substrate (5.0 mM p-NPP) into each well and incubated for an additional 30 min.
Percent inhibition was calculated by the formula:% Inhibition = [100 − (abs of test comp/abs of control) × 100]

[4] = Homo sapiens, HeLa, 100 µM, 24 h
[5] = Table 2, read-out: Alkaline Phosphatase (h-TNAP) percent inhibition
[6] = percent inhibition of h-TNAP, Table 1 and text, read-out: Inhibitory Potential
[7] = Table 2, unit given in Table 1, read-out: Alkaline Phosphatase (h-TNAP) IC50
[8] = h-TNAP, assay buffer pH 9.5, Table 1 and text, read-out: IC50 + SEM

Row | SMILES | IC50 [1] | activity against h-TNAP in words [3] | inhibition at 1000 µM [3, 5] | inhibition at 1000 µM [3, 6] | IC50 ([2]; Homo sapiens, HeLa) | IC50 [3, 7] | IC50 [3, 8] | inhibition at 100 µM [1] | inhibition at 100 µM [2, 4] | activity against MCF-7 in words [1] | activity against HeLa in words [2] | Cervical Cancer (HeLa) Cells % Inhibition (at 100 µM) ([2]; 100 µM, 24 h) | IC50 [2]
1 | CSc1ccc(C2C(C#N)=C(N)N(Cc3ccccc3)C(N)=C2C#N)cc1 [Compound 4a, 2,6-Diamino-1-benzyl-4-(4-(methylthio)phenyl)-1,4-dihydropyridine-3,5-dicarbonitrile] |  | least activity | 21.1% | 20.9% |  |  |  | 37.9% | 7.71% | least potency | least potency |  | 
2 | CC(C)c1ccc(C2C(C#N)=C(N)N(Cc3ccccc3)C(N)=C2C#N)cc1 [Compound 4b, 2,6-Diamino-1-benzyl-4-(4-isopropylphenyl)-1,4-dihydropyridine-3,5-dicarbonitrile] |  | least activity | 28.3% | 28.3% |  |  |  | 41.8% | 11% | least potency | least potency |  | 
3 | N#CC1=C(N)N(Cc2ccccc2)C(N)=C(C#N)C1c1cccc2ccccc12 [Compound 4c, 2,6-Diamino-1-benzyl-4-(naphthalen-1-yl)-1,4-dihydropyridine-3,5-dicarbonitrile] |  |  | 26.2% | 26.2% |  |  |  | 23.1% | 21.3% | inactive | inactive |  | 
4 | N.N.[Cl][Pt][Cl] [Cisplatin, reference compound] |  |  |  |  |  |  |  |  |  |  |  | 98.32% | 11.3 ± 0.78 µM
5 | COc1c(O)cccc1C1C(C#N)=C(N)N(Cc2ccccc2)C(N)=C1C#N [Compound 4f, 2,6-Diamino-1-benzyl-4-(3-hydroxy-2-methoxyphenyl)-1,4-dihydropyridine-3,5-dicarbonitrile] | 77 ± 8.3 µM |  |  |  | 57 ± 7.1 µM | 2.25 ± 0.16 µM | 2.25 ± 0.16 µM | 61.7% | 77.3% |  |  |  | 
6 | COc1ccc(C2C(C#N)=C(N)N(Cc3ccccc3)C(N)=C2C#N)c(OC)c1OC [Compound 4e, 2,6-Diamino-1-benzyl-4-(2,3,4-trimethoxyphenyl)-1,4-dihydropyridine-3,5-dicarbonitrile] |  |  |  |  | 69.47 ± 0.07 µM | 8.8 ± 0.53 µM | 8.8 ± 0.53 µM | 5.73% | 60% |  |  |  | 

More lines, main results first:

Row | IC50 [1] | activity against h-TNAP in words [3] | inhibition at 1000 µM [3, 5] | inhibition at 1000 µM [3, 6] | IC50 ([2]; Homo sapiens, HeLa) | IC50 [3, 7] | IC50 [3, 8] | SMILES | inhibition at 100 µM [1] | inhibition at 100 µM [2, 4] | activity against MCF-7 in words [1] | activity against HeLa in words [2] | Cervical Cancer (HeLa) Cells % Inhibition (at 100 µM) ([2]; 100 µM, 24 h) | IC50 [2]
7 | 109.9 ± 1.07 µM | least inhibitory activity | 37.6% | 37.6% |  |  |  | CSc1ccc(-c2c(C#N)c(N)nc(NCCc3ccc(S(N)(=O)=O)cc3)c2C#N)cc1 [Compound 4h, 4-(2-((6-Amino-3,5-dicyano-4-(4-(methylthio)phenyl)pyridin-2-yl)amino)ethyl)benzene sulfonamide] | 57.2% | 38.4% |  |  |  | 
8 |  | least inhibitory activity | 31.7% | 31.7% |  |  |  | CC(C)c1ccc(-c2c(C#N)c(N)nc(NCCc3ccc(S(N)(=O)=O)cc3)c2C#N)cc1 [Compound 4i] | 34.6% | 39.3% |  |  |  | 
9 | 98 ± 5.7 µM |  |  |  | 63 ± 4.1 µM | 0.49 ± 0.025 µM | 0.49 ± 0.025 µM | CCOc1ccc(-c2c(C#N)c(N)nc(NCCc3ccc(S(N)(=O)=O)cc3)c2C#N)cc1 [Compound 4g, 4-(2-((6-Amino-3,5-dicyano-4-(4-ethoxyphenyl)pyridine-2yl)amino)ethyl)benzene sulfonamide] | 53.3% | 67.1% |  |  |  | 
10 |  | comparatively inactive | 36.5% | 36.5% | 66 ± 1.97 µM |  |  | CC(C)c1ccc(-c2c(C#N)c(N)nc(NCCCn3ccnc3)c2C#N)cc1 [Compound 4k, 2-((3-(1H-Imidazol-1-yl)propyl)amino)-6-amino-4-(4-(isopropyle)phenyl)pyridine-3,5-dicarbonitrile] | 40.1% | 63.8% |  |  |  | 
11 | 2.81 ± 0.39 µM |  |  |  |  |  |  | COc1cccc2c1C(=O)c1c(O)c3c(c(O)c1C2=O)C[C@@](O)(C(=O)CO)C[C@@H]3O[C@H]1C[C@H](N)[C@H](O)[C@H](C)O1 [Doxorubicin, reference compound] | 98.9% |  |  |  |  | 
12 | 54 ± 1.7 µM |  |  |  | 57 ± 1.5 µM | 1.22 ± 0.12 µM | 1.22 ± 0.12 µM | CCOc1ccc(-c2c(C#N)c(N)nc(NCCCn3ccnc3)c2C#N)cc1 [Compound 4j, 2-((3-(1H-Imidazol-1-yl)propyl)amino)-6-amino-4-(4-ethoxyphenyl)pyridine-3,5-dicarbonitrile] | 72.4% | 77.8% |  |  |  | 
